Test results reported in patent US8354539B2, “Indole derivatives as IKK2 inhibitors” (Glaxo Group Limited, priority 2009, dated 2013).

Experiments:
[1] = molecular target: T1, Recombinant human IKK1 (Homo sapiens, UniProt O15111); assay: IKK1 time-resolved fluorescence resonance energy transfer assay; assay type: biochemical; settings: IKK2 assay and IKK2 time dependent assay versus IKK1 TR-FRET assay
T1 construct: Recombinant human IKK1 (residues 1-785); 6HIS (C); made in house
T1 sequence (O15111 1-745): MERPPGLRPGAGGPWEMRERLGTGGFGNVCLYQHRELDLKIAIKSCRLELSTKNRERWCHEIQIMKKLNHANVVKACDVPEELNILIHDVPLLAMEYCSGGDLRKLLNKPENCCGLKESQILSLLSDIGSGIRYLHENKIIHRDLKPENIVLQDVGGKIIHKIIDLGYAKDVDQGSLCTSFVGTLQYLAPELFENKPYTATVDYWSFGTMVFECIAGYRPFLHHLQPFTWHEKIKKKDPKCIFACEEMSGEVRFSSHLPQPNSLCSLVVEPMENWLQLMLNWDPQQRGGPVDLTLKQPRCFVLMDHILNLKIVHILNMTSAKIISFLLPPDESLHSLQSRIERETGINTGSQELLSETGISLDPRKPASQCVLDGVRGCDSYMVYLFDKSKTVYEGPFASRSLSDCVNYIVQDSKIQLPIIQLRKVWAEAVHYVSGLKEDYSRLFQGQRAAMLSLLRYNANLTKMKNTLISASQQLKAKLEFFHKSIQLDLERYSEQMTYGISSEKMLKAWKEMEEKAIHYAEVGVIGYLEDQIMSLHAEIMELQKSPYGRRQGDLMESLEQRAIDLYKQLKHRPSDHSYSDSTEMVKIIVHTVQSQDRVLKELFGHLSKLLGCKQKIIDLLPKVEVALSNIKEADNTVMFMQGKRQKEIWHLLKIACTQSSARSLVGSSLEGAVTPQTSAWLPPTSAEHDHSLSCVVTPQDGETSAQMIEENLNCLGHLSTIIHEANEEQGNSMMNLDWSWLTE
Procedure: Recombinant human IKK1 (residues 1-785) was expressed in baculovirus as a C-terminal 6HIS-tagged fusion protein, and its activity was assessed using a time-resolved fluorescence resonance energy transfer (TR-FRET) assay. Briefly, IKK1 (typically 5-10 nM final) diluted in assay buffer (50 mM HEPES, 10 mM MgCl2, 1 mM CHAPS pH 7.4 with 1 mM DTT and 0.01% w/v BSA) was added to wells containing various concentrations of compound or DMSO vehicle (1.7% v/v final). The reaction was initiated by the addition of GST-IκBα substrate (25 nM final)/ATP (1 μM final), in a total volume of 6 μl. The reaction was incubated for 15 minutes at room temperature, then terminated by the addition of stop reagent (3 μl) containing 50 mM EDTA and detection reagents in buffer (100 mM HEPES pH 7.4, 150 mM NaCl and 0.01% w/v BSA). […] The degree of phosphorylation of GST-IκBα was measured using a suitable time-resolved fluorimeter such as Packard Discovery (Perkin-Elmer Life Sciences, Pangbourne, Berkshire, UK), Wallac Viewlux (Perkin-Elmer Life Sciences, Pangbourne, Berkshire, UK), Envision (Perkin-Elmer Life Sciences, Pangbourne, Berkshire, UK), or Rubystar (BMG, Aylesbury, Buckinghamshire, UK) as a ratio of specific 665 nm energy transfer signal to reference europium 620 nm signal.

[2] = tested on: A549 SPAP cells; assay: NFkB reporter assay; assay type: cell-based; settings: Homo sapiens, TNF stimulated, read-out: pIC50 potency (converted)
Procedure: A 70% confluent T225 flask of A549 SPAP cells was harvested by centrifugation for 5 min at 200 g, resuspended in assay buffer (DMEM supplemented with 10% FCS 2×HI, 2 mM L-Glutamine, 1% Pen/Strep and Non essential amino acids) and diluted to 0.16×10^6/ml. 60 μl of cell solution was dispensed to each well of clear Nunc 384-well plates, containing 0.5 μl compound in neat DMSO at 140× the required final assay concentration. Plates were incubated for 1h at 37° C., 95% humidity, 5% CO2 before […] of TNF solution in assay buffer was added to give a final concentration of 3.2 ng/ml and then returned to the cell incubator for 15 h. Plates were equilibrated to room temperature for 1 h prior to the addition of 25 μl of pNPP buffer (1 M Diethanolamine pH 9.8, 0.5 mM MgCl2, 0.28M NaCl, 2 mg/ml pNPP) to each well of assay plates. The plates were covered to protect the reagents from light, and then incubated at room temperature for approximately 1 hour before reading them on an Ascent using a 405 nm single filter.
All data was normalized to the mean of 16 high and 16 low control wells on each plate. A four parameter curve fit of the following form was then applied

`COCCS(=O)(=O)N1CCC(c2c[nH]c3c(C(N)=O)cc(-c4ccc5c(c4)CN(C(C)C)C5)cc23)CC1` [Compound of formula (I), 5-[2-(1-methylethyl)-2,3-dihydro-1H-isoindol-5-yl]-3-(1-{[2-(methyloxy)ethyl]sulfonyl}-4-piperidinyl)-1H-indole-7-carboxamide] was tested. Which “potency at IKK2 relative to IKK1” value [1] did it give?
Its value is “inhibited IKK2 with greater potency than IKK1”.

And the IC50 [2]?
Its IC50 is < 31.6 nM.
